The source of these data is article PMC11952846, “The sterol-regulating human ARV1 binds cholesterol and phospholipids through its conserved ARV1 homology domain” (The Journal of Biological Chemistry, 2025).

Numbering of substitutions follows the chain as printed. Entries after “also recorded” stand apart in the source; their conditions may differ.

Common to all, as to experiment: HTRF phospholipid lipid-binding assay, mutant
One test addresses T1, 6XHIS-N98 C34/37A (Homo sapiens, UniProt Q9H2C2, C34A/C37A).
T1 construct: made in house; host or cells: E. coli BL21
T1 sequence (Q9H2C2 1-98 C34A/C37A): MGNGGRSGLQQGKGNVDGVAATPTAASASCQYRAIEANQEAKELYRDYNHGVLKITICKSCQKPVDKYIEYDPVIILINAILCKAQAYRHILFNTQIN
Set-up: key: NC, no change. Conditions: biotinylated lipid; NC = no change vs N98. The text has this: (§1) An HTRF assay was developed for 6XHIS-ARV1-N98-lipid binding. HTRF measures analyte interactions through fluorescence resonance energy transfer technology and time-resolved measurements ([53]). The interaction between two molecules can be quantified through binding each individual molecule involved with a fluorescent label and then analyzing the transfer of energy between the initial donor fluorophore and the secondary acceptor fluorophore. Following excitation of the first fluorophore, transfer of energy can only occur if the molecules bound with the fluorescent tags are within proximity to each other.
(§2) Assays were plated in 384-well flat bottom microplates (Greiner Bio, catalog #784075-25). Proteins were diluted using binding buffer (20 mM Hepes buffer, pH 7.2, containing 0.1% BSA, and 0.01% Tween20) to a stock concentration of 0.75 μM, and biotinylated phospholipids were dispensed, dried under nitrogen gas, and resuspended in binding buffer to a stock concentration of 50 μM. The lipid stock solution was diluted by 1:2 for a series of 12 serial dilutions. For the assay, in sequential order, 6 μl of binding buffer was loaded into the plate in triplicate for each dilution of phospholipid. To this, 2 μl of 0.75 μM 6XHIS-ARV1-N98 was added, followed by 2 μl of biotinylated phospholipid. Immediately following each addition loaded into the plate, the plate was centrifuged for 1 min at 1000 rpm to bring the contents to the bottom of the well. Next, detection antibodies were mixed with detection buffer (20 mM Hepes buffer, pH 8.5, containing 0.01% BSA and 200 mM KF). Antibodies were a MAb anti-6XHIS Europium kryptate-conjugated D1 fluorescent antibody (Cisbio, #61HISKLA) and Streptavidin-conjugated d2 fluorescent antibody (Cisbio, #610SADLA). For each 1000 μl of detection buffer, 5 μl of each antibody was added just prior to loading 10 μl into each well. The plate was again centrifuged for 1 min at 1000 rpm and stored in a sealed container overnight, in the dark. Plates were read on a PerkinElmer EnVision Xcite Multilabel plate reader.
(§3) Curves were logarithmically transformed and normalized to a common scale before being fit with a nonlinear regression of the agonist against the normalized response. This generated half maximal effective concentration values (EC50; M) that could then be compared between different lipids. In the context of our study, EC50 values were defined as a measure of protein sensitivity to binding to a particular lipid within a dose response curve. For phospholipid competition analysis, IC50; M values were determined using nonlinear regression of the inhibitor against normalized response.

Another test deals with T2, 6XHIS-N98 C58/61A (Homo sapiens, UniProt Q9H2C2, C58A/C61A).
T2 construct: made in house; host or cells: E. coli BL21
T2 sequence (Q9H2C2 1-98 C58A/C61A): T1 sequence (Q9H2C2 1-98 C34A/C37A) with A34C, A37C, C58A, C61A
Set-up: key: NC, no change. Conditions: biotinylated lipid; NC = no change vs N98.
From the text: as §1, §2, §3

Another test addresses T3, 6XHIS-N98 N94A (Homo sapiens, UniProt Q9H2C2, N94A).
T3 construct: made in house; host or cells: E. coli BL21
T3 sequence (Q9H2C2 1-98 N94A): T1 sequence (Q9H2C2 1-98 C34A/C37A) with A34C, A37C, N94A
Set-up: key: NC, no change. Conditions: biotinylated lipid; NC = no change vs N98.
From the text: as §1, §2, §3

Another test addresses T4, 6XHIS-N98 N94Q (Homo sapiens, UniProt Q9H2C2, N94Q).
T4 construct: made in house; host or cells: E. coli BL21
T4 sequence (Q9H2C2 1-98 N94Q): T1 sequence (Q9H2C2 1-98 C34A/C37A) with A34C, A37C, N94Q
The arrangement: key: NC, no change. Conditions: biotinylated lipid; NC = no change vs N98.
From the text: as §1, §2, §3

The target of the next test is T5, 6XHIS-N98 D72A (Homo sapiens, UniProt Q9H2C2, D72A).
T5 construct: made in house; host or cells: E. coli BL21
T5 sequence (Q9H2C2 1-98 D72A): T1 sequence (Q9H2C2 1-98 C34A/C37A) with A34C, A37C, D72A
Set-up: key: NC, no change. Conditions: biotinylated lipid; NC = no change vs N98.
From the text: as §1, §2, §3

The next test deals with T6, 6XHIS-N98 K54/K59A (Homo sapiens, UniProt Q9H2C2, K54A/K59A).
T6 construct: made in house; host or cells: E. coli BL21
T6 sequence (Q9H2C2 1-98 K54A/K59A): T1 sequence (Q9H2C2 1-98 C34A/C37A) with A34C, A37C, K54A, K59A
Set-up: key: NC, no change. Conditions: biotinylated lipid; NC = no change vs N98.
From the text: as §1, §2, §3

The target in the next test is T7, 6XHIS-N98 E70A (Homo sapiens, UniProt Q9H2C2, E70A).
T7 construct: made in house; host or cells: E. coli BL21
T7 sequence (Q9H2C2 1-98 E70A): T1 sequence (Q9H2C2 1-98 C34A/C37A) with A34C, A37C, E70A
Set-up: key to Bio-PL, EC50, M ± S.D.: NC, no change. Conditions: biotinylated lipid, NC = no change vs N98.
From the text: as §1, §2, §3

Turning to `CCCCC/C=C\C/C=C\CCCCCCCC(=O)OC[C@H](COP(=O)(O)OCC(O)COP(=O)(O)OC[C@@H](COC(=O)CCCCCCC/C=C\C/C=C\CCCCC)OC(=O)CCCCCCC/C=C\C/C=C\CCCCC)OC(=O)CCCCCCC/C=C\C/C=C\CCCCC` (some centres unmarked) [CL, cardiolipin], the “Bio-PL, EC50, M ± S.D.” value on 6XHIS-N98 C34/37A, on 6XHIS-N98 C58/61A, on 6XHIS-N98 N94A, at 6XHIS-N98 N94Q, on 6XHIS-N98 D72A and at 6XHIS-N98 K54/K59A was “NC” each time. Moreover, the “Bio-PL, EC50, M ± S.D.” value on 6XHIS-N98 E70A is “NC”.

As for `CCCCCCCCCCCCCCCC(=O)OC[C@H](COP(=O)(O)O)OC(=O)CCCCCCCCCCCCCCC` [PA, phosphatidic acid], the “Bio-PL, EC50, M ± S.D.” value at 6XHIS-N98 C34/37A is “increased”; at 6XHIS-N98 C58/61A, “reduced binding”; on 6XHIS-N98 N94A it was “reduced binding”; on 6XHIS-N98 N94Q, “reduced binding”; on 6XHIS-N98 D72A, “reduced binding”; at 6XHIS-N98 K54/K59A it was “reduced binding”. In addition, on 6XHIS-N98 E70A, the “Bio-PL, EC50, M ± S.D.” value is on record as “reduced binding”.

As for `CCCCCCCC/C=C\CCCCCCCC(=O)OC[C@H](COP(=O)(O)OCC(O)CO)OC(=O)CCCCCCC/C=C\CCCCCCCC` (some centres unmarked) [PG, phosphatidylglycerol], the “Bio-PL, EC50, M ± S.D.” value on 6XHIS-N98 C34/37A is recorded as “reduced”; on 6XHIS-N98 C58/61A it was “NC”; at 6XHIS-N98 N94A, “reduced”; at 6XHIS-N98 N94Q, “NC”; on 6XHIS-N98 D72A, “NC”; on 6XHIS-N98 K54/K59A, “reduced”. Also, the “Bio-PL, EC50, M ± S.D.” value on 6XHIS-N98 E70A is “NC”.

With `CCCCCCCCCCCCCCCCCC(=O)OC[C@H](COP(=O)(O)OC[C@H](N)C(=O)O)OC(=O)CCCCCCCCCCCCCCCCC` [PS, phosphatidylserine], the “Bio-PL, EC50, M ± S.D.” value at 6XHIS-N98 C34/37A, at 6XHIS-N98 C58/61A, at 6XHIS-N98 N94A, on 6XHIS-N98 N94Q, at 6XHIS-N98 D72A and on 6XHIS-N98 K54/K59A was “NC” each time. Besides, the “Bio-PL, EC50, M ± S.D.” value on 6XHIS-N98 E70A is reported as “NC”.

As to `CCCCCC(=O)O[C@H](COC(=O)CCCCCNC(=O)CCCC[C@@H]1SC[C@@H]2NC(=O)N[C@@H]21)COP(=O)(O)O[C@H]1[C@H](O)[C@@H](O)[C@H](OP(=O)(O)O)[C@@H](O)[C@H]1O` [reference compound], the “Bio-PL, EC50, M ± S.D.” value at 6XHIS-N98 C58/61A is “weakened”; on 6XHIS-N98 N94A, “weakened; also recorded: reduction”; on 6XHIS-N98 N94Q, “weakened”; at 6XHIS-N98 D72A, “weakened”; on 6XHIS-N98 E70A, “weakened”.

phosphatidylcholine [PC]: the “Bio-PL, EC50, M ± S.D.” value at 6XHIS-N98 C34/37A, on 6XHIS-N98 C58/61A, at 6XHIS-N98 N94A, at 6XHIS-N98 N94Q, on 6XHIS-N98 D72A and at 6XHIS-N98 K54/K59A was “NC” in each case. Besides, the “Bio-PL, EC50, M ± S.D.” value at 6XHIS-N98 E70A is “NC”.

For the compound phosphatidylethanolamine [PE], the “Bio-PL, EC50, M ± S.D.” value at 6XHIS-N98 C34/37A, at 6XHIS-N98 C58/61A, at 6XHIS-N98 N94A, at 6XHIS-N98 N94Q, on 6XHIS-N98 D72A and at 6XHIS-N98 K54/K59A was “NC” in each case. At 6XHIS-N98 E70A (read-out: Bio-PL, EC50, M ± S.D.), the EC50 came to 190 nM.
